Experimental data reported in US10370356B2, “Pyridinone dicarboxamide for use as bromodomain inhibitors” (GlaxoSmithKline Intellectual Property (No. 2) Limited, priority 2015, dated 2019).
Where a name gives a salt, the structure may show the parent alone.

What follows are molecules tested on BET family (BRD2, BRD3, BRD4 and BRDT) tandem bromodomain proteins (assay: Fluorescence Polarisation binding of Reference Compound X to single and double mutant tandem BET proteins). Conditions: double mutant tandem proteins versus non mutated, wild type tandem BET proteins.
Parameters: species or system Human
Description: The competition of the compounds of formula (I) with Reference Compound X for binding to the BET family (BRD2, BRD3, BRD4 and BRDT) was assessed using protein truncates spanning both bromodomain 1 (BD1) and bromodomain 2 (BD2). In order to monitor differential binding to either BD1 or BD2, single residue mutations of key tyrosines to alanine were made in the acetyl lysine binding pockets. To validate this approach, a double residue mutant tandem domain protein was produced for each of the BET family members. Utilising a Fluorescence Polarisation approach, binding affinities for each of the single and double mutants for Reference Compound X were determined. […] The affinities of the single mutated bromdomain tandem proteins for Reference Compound X were equi-potent with the corresponding non-mutated BET protein. […] In the TR-FRET competition assay, Reference Compound X is used at a concentration that is equivalent to the Kd for the non-mutated bromodomain, which ensures that no binding at the mutated bromodomain is detected. […]
COc1ccc2c(c1)C(c1ccc(Cl)cc1)=N[C@@H](CC(=O)NCCCCCNC(=O)CCCCCC1(C)/C(=C/C=C/C=C/C3=[N+](CCCCS(=O)(=O)O)c4ccc(S(=O)(=O)O)cc4C3(C)C)N(CCCCS(=O)(=O)[O-])c3ccc(S(=O)(=O)O)cc31)c1nnc(C)n1-2 (some centres unmarked) [Reference Compound X] was tested, and the “reduction in Kd” value was over 1000 fold.

Same assay, conditions: single mutations of Tyrosine to Alanine
For COc1ccc2c(c1)C(c1ccc(Cl)cc1)=N[C@@H](CC(=O)NCCCCCNC(=O)CCCCCC1(C)/C(=C/C=C/C=C/C3=[N+](CCCCS(=O)(=O)O)c4ccc(S(=O)(=O)O)cc4C3(C)C)N(CCCCS(=O)(=O)[O-])c3ccc(S(=O)(=O)O)cc31)c1nnc(C)n1-2 (some centres unmarked) [Reference Compound X], the “reduction of the Kd of the interaction between the mutated bromodomain and Reference Compound X” value was over 1000 fold.

Each molecule was assayed against T1, BRD4 BD2 (Homo sapiens, UniProt O60885, Y97A) (assay: BRD4 BD2 mutant TR-FRET competition assay). Conditions: average of N recorded values, read-out: BRD4 BD2 IC50 (average value) (converted).
T1 construct: BRD4 (1-477) (Y97A) and (Y390A); made in house; host or cells: E. coli (pET15b vector)
Type: binding
Molecule CNC(=O)c1cc(C(=O)NCCC[C@H]2OC[C@H](N)CO2)cn(Cc2ccccc2)c1=O [Example 88, N^5-(3-((2r,5r)-5-Amino-1,3-dioxan-2-yl)propyl)-1-benzyl-N^3-methyl-2-oxo-1,2-dihydropyridine-3,5-dicarboxamide] has an IC50 of 50.1 nM.

Same assay, conditions: read-out: pIC50 in the BRD4 BD2 assay (converted)
Work on CCNC(=O)c1cc(C(=O)NCCCC2CCNCC2)cn(Cc2ccccc2)c1=O [Example 78, 1-benzyl-N^3-ethyl-2-oxo-N^5-(3-(piperidin-4-yl)propyl)-1,2-dihydropyridine-3,5-dicarboxamide] yielded an IC50 of 100 to 1000 nM. With CNC(=O)c1cc(C(=O)N[C@H]2[C@@H]3CN(C(=O)OC(C)(C)C)C[C@@H]32)cn(Cc2cccc3[nH]ccc23)c1=O [Example 79, (1R,5S,6s)-tert-Butyl 6-(1-((1H-indol-4-yl)methyl)-5-(methylcarbamoyl)-6-oxo-1,6-dihydropyridine-3-carboxamido)-3-azabicyclo[3.1.0]hexane-3-carboxylate] the IC50 was at most 100 nM. With CNC(=O)c1cc(C(=O)N[C@H]2[C@@H]3CNC[C@@H]32)cn(Cc2cccc3[nH]ccc23)c1=O [Example 80] the IC50 was at most 100 nM. Work on CNC(=O)c1cc(C(=O)N[C@H]2[C@@H]3CN(C(C)=O)C[C@@H]32)cn(Cc2cccc3[nH]ccc23)c1=O [Example 81, 1-((1H-Indol-4-yl)methyl)-N^5-((1R,5S,6s)-3-acetyl-3-azabicyclo[3.1.0]hexan-6-yl)-N^3-methyl-2-oxo-1,2-dihydropyridine-3,5-dicarboxamide] yielded an IC50 of at most 100 nM. In the case of CCNC(=O)c1cc(C(=O)NCCC[C@]2(F)CCCNC2)cn(Cc2ccccc2)c1=O [Example 82], the IC50 is reported as at most 100 nM. For CCNC(=O)c1cc(C(=O)NCC[C@@H]2CNCCO2)cn(Cc2ccccc2)c1=O [Example 83, (R)-1-benzyl-N^3-ethyl-N^5-(2-(morpholin-2-yl)ethyl)-2-oxo-1,2-dihydropyridine-3,5-dicarboxamide], the IC50 was 100 to 1000 nM. Work on CCNC(=O)c1cc(C(=O)NCCC[C@@H]2CNCCO2)cn(Cc2ccccc2)c1=O [Example 84, (R)-1-benzyl-N^3-ethyl-N^5-(3-(morpholin-2-yl)propyl)-2-oxo-1,2-dihydropyridine-3,5-dicarboxamide] yielded an IC50 of at most 100 nM. CNC(=O)c1cc(C(=O)N[C@H]2[C@@H]3CN(CCNC(=O)OC(C)(C)C)C[C@@H]32)cn(Cc2cccc3[nH]ccc23)c1=O [Example 85, tert-Butyl (2-((1R,5S,6s)-6-(1-((1H-indol-4-yl)methyl)-5-(methylcarbamoyl)-6-oxo-1,6-dihydropyridine-3-carboxamido)-3-azabicyclo[3.1.0]hexan-3-yl)ethyl)carbamate] gave an IC50 of at most 100 nM. With CNC(=O)c1cc(C(=O)N[C@H]2[C@@H]3CN(CCN)C[C@@H]32)cn(Cc2cccc3[nH]ccc23)c1=O [Example 86, 1-((1H-Indol-4-yl)methyl)-N^5-((1R,5S,6s)-3-(2-aminoethyl)-3-azabicyclo[3.1.0]hexan-6-yl)-N^3-methyl-2-oxo-1,2-dihydropyridine-3,5-dicarboxamide] the IC50 was at most 100 nM. Work on CNC(=O)c1cc(C(=O)N[C@H]2[C@@H]3CN(CCNC(C)=O)C[C@@H]32)cn(Cc2cccc3[nH]ccc23)c1=O [Example 87, 1-((1H-Indol-4-yl)methyl)-N^5-((1R,5S,6s)-3-(2-acetamidoethyl)-3-azabicyclo[3.1.0]hexan-6-yl)-N^3-methyl-2-oxo-1,2-dihydrouridine-3,5-dicarboxamide] yielded an IC50 of at most 100 nM. Molecule CNC(=O)c1cc(C(=O)NCCC[C@H]2OC[C@H](N)CO2)cn(Cc2ccccc2)c1=O [Example 88, N^5-(3-((2r,5r)-5-Amino-1,3-dioxan-2-yl)propyl)-1-benzyl-N^3-methyl-2-oxo-1,2-dihydropyridine-3,5-dicarboxamide] has an IC50 of at most 100 nM. Molecule CNC(=O)c1cc(C(=O)NCCOC2CCNCC2)cn(Cc2ccccc2)c1=O [Example 89, 1-benzyl-N^3-methyl-2-oxo-N^5-(2-(piperidin-4-yloxy)ethyl)-1,2-dihydropyridine-3,5-dicarboxamide hydrochloride] has an IC50 of 100 to 1000 nM. In the case of CNC(=O)c1cc(C(=O)NC2CN(S(C)(=O)=O)C2)cn(Cc2ccccc2)c1=O [Example 90, 1-benzyl-N^3-methyl-N^5-(1-(methylsulfonyl)azetidin-3-yl)-2-oxo-1,2-dihydropyridine-3,5-dicarboxamide], the IC50 is reported as 100 to 1000 nM. For CNC(=O)c1cc(C(=O)NC2COC2)cn(Cc2ccccc2)c1=O [Example 91, 1-benzyl-N^3-methyl-N^5-(oxetan-3-yl)-2-oxo-1,2-dihydropyridine-3,5-dicarboxamide], the IC50 was 100 to 1000 nM.
